Source: patent EP3960748A1, “COMPOSITION FOR THE TREATMENT OF THE SIDE EFFECTS OF RADIOTHERAPY AND/OR CHEMOTHERAPY” (Fundación Profesor Novoa Santos, priority 2019, dated 2020)

What was measured:
Format in all cases: cell-based
p53 = assay: Western blot of p53 in radiated fibroblasts; conditions: Fig. 7; post-radiation treatment for 72 hours; oleuropein 10 µM, BIRB796 2.5 µM; 55 Grays; relative to tubulin
Description: (§1) Skin tissue biopsies from female patients of A Coruña University Hospital Complex - A Coruña Integrated Management Services (Complejo Hospitalario Universitario de A Coruña - Xerencia Xestión Integrada A Coruña (CHUAC-XXIAC)) were obtained from operations for the surgical removal of a benign pathology (fibroadenoma, samples consisting of untreated healthy skin) and from oncology interventions (samples consisting of skin subjected to radiotherapy and chemotherapy). Signed informed consent was received from each of the patients (2015/029, C.0003333, 2016/077). To isolate primary fibroblast from these samples, hypodermal fat was removed with the aid of a scalpel, and the epidermis was segmented into fragments of about 1x1 cm (explants). Lines were made with a scalpel on a 100 cm^2 adherent Petri dish creating a grid, and each of the explants was placed in the resulting intersections with the epidermis facing up and the dermis in contact with the dish. […] The working concentrations of said compounds were determined by means of literature review and cell viability assays (MTT). […]

p21 [1] = assay: Western blot of p21 in radiated fibroblasts; conditions: Fig. 7; post-radiation treatment for 72 hours; oleuropein 10 µM, BIRB796 2.5 µM; 55 Grays; relative to tubulin
Description: as §1

MMP-3 = assay: Gene expression analysis (qPCR) of MMP-3; conditions: Fig. 5B; 72 hours, BIRB796 2.5 µM; 55 Grays; normalized against HPRT1, compared to non-radiated healthy fibroblast control
Description: as §1
(§2) For RNA extraction from the different cell types, TRI Reagent (MRC) was used following the manufacturer's instructions. […] The amount and quality of the obtained RNA was quantified in Nanodrop ND-1000. […]

IL-1β = assay: Gene expression analysis (qPCR) of IL-1β; conditions: Fig. 5C; 72 hours, BIRB796 2.5 µM with or without oleuropein; 55 Grays; normalized against HPRT1
Description: as §1, §2

IL-6 = assay: Gene expression analysis (qPCR) of IL-6; conditions: Fig. 5C; 72 hours, BIRB796 2.5 µM with or without oleuropein; 55 Grays; normalized against HPRT1
Description: as §1, §2

p21 [2] = assay: Gene expression analysis (qPCR) of p21; conditions: Fig. 8; 72 hours; oleuropein 10 µM, BIRB796 2.5 µM; 55 Grays; normalized against HPRT1
Description: as §1, §2

## Cc1ccc(-n2nc(C(C)(C)C)cc2NC(=O)Nc2ccc(OCCN3CCOCC3)c3ccccc23)cc1 [BIRB796, doramapimod]
p53
  protein levels of p53: effectively reduced protein levels of both factors
p21 [1]
  protein levels of p21: effectively reduced protein levels of both factors
MMP-3
  MMP-3 mRNA levels: protects against the synthesis of SASP components such as MMP-3
IL-1β
  IL-1β mRNA levels: decreases synthesis of the inflammatory component
IL-6
  IL-6 mRNA levels: decreases synthesis of the inflammatory component
p21 [2]
  p21 mRNA level: reduces the gene expression of senescence factor p21
